Measurements as given in ChEMBL document CHEMBL5352409, “Design, synthesis, and pharmacological evaluation of 2-(1-(1,3,4-thiadiazol-2-yl)piperidin-4-yl)ethan-1-ol analogs as novel glutaminase 1 inhibitors” (Eur J Med Chem, 2022).

Key:
HCT-116 = assay: cells; conditions: Homo sapiens
A549 = assay: Antiproliferative activity against human A549 cells assessed as reduction in cell viability; format: functional, cell-based
[1] = target: T1, Glutaminase kidney isoform, mitochondrial (Homo sapiens, UniProt O94925); assay: Inhibition of GLS1 (unknown origin)
T1 sequence (O94925 whole entry): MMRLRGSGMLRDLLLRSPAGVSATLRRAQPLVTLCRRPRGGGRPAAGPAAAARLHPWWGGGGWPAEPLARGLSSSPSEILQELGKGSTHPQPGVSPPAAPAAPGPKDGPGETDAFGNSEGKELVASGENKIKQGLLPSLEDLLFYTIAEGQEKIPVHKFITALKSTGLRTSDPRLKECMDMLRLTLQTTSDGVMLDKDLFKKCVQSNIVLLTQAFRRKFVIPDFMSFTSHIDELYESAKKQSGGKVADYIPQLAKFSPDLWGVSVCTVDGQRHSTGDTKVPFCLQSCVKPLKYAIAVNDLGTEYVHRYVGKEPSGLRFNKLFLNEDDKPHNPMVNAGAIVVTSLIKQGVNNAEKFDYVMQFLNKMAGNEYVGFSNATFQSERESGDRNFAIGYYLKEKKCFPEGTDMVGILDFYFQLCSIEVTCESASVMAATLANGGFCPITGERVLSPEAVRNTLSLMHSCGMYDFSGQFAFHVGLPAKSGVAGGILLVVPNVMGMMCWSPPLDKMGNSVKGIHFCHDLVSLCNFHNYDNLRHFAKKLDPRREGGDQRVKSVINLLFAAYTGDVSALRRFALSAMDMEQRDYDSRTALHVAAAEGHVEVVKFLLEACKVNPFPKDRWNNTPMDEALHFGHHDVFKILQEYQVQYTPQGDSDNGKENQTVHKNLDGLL

| IC50 (HCT-116) [µM] | IC50 (A549) [µM] | IC50 [1] [µM] | Compound |
| --- | --- | --- | --- |
| > 10 | > 10 | > 10 | CCN(CC)CCNC(=O)c1ccc(CCc2nnc(NC(=O)Cc3ccccc3)s2)cc1 |
| 1.08 | 1.55 | 0.16 | CCCCN1CCC(CNC(=O)c2cccc(COCCC3CCN(c4nnc(NC(=O)Cc5ccccc5)s4)CC3)c2)CC1 |
| > 10 | > 10 |  | O=C(Cc1ccccc1)Nc1nnc(N2CCN(Cc3cccc(C(=O)NCc4ccc(C(F)(F)F)cc4)c3)CC2)s1 |
| > 10 | > 10 | > 10 | CN1CCC(CNC(=O)c2ccc(CN3CCN(c4nnc(NC(=O)Cc5ccccc5)s4)CC3)cc2)CC1 |
| 2.86 | 2.07 | 0.264 | CCN(CC)CCNC(=O)c1ccc(CN2CCN(c3nnc(NC(=O)Cc4ccccc4)s3)CC2)cc1 |
| 1.19 | 0.98 | 0.077 | CN1CCN(c2cccc(C(=O)Nc3cccc(CN4CCN(c5nnc(NC(=O)Cc6ccccc6)s5)CC4)c3)c2)CC1 |
| 1.09 | 1.22 | 0.106 | O=C(Cc1ccccc1)Nc1nnc(N2CCN(Cc3ccc(C(=O)NCCNc4ccccc4)cc3)CC2)s1 |
| > 10 | > 10 | > 10 | O=C(Cc1ccccc1)Nc1nnc(CCc2ccc(C(=O)N3CCCCC3)cc2)s1 |
| > 10 | > 10 | > 10 | CCCNC(=O)c1ccc(CCc2nnc(NC(=O)Cc3ccccc3)s2)cc1 |
| 3.05 | 2.24 | 0.365 | CC(C)N1CCC(CNC(=O)c2ccc(COCCC3CCN(c4nnc(NC(=O)Cc5ccccc5)s4)CC3)cc2)CC1 |
| 1.09 | 3.28 | 0.162 | O=C(Cc1ccccc1)Nc1nnc(N2CCN(Cc3ccc(C(=O)NCCN4CCCCC4)cc3)CC2)s1 |
| > 10 | > 10 | 2.55 | CCN1CCC(NC(=O)c2ccc(COC3CCN(c4nnc(NC(=O)Cc5ccccc5)s4)CC3)cc2)CC1 |
| > 10 | > 10 | > 10 | CN1CCC(CNC(=O)c2ccc(COC3CCN(c4nnc(NC(=O)Cc5ccccc5)s4)CC3)cc2)CC1 |
| 4.08 | 1.08 | 1.08 | CCCNC(=O)c1ccc(COC2CCN(c3nnc(NC(=O)Cc4ccccc4)s3)CC2)cc1 |
| 8.52 | 7.42 | 0.546 | O=C(Cc1ccccc1)Nc1nnc(N2CCC(CCOCc3cccc(C(=O)N4CCN(c5cccc(F)c5)CC4)c3)CC2)s1 |
| 7.05 | 8.52 | 0.555 | O=C(Cc1ccccc1)Nc1nnc(N2CCC(CCOCc3cccc(C(=O)NCCN4CCCCC4)c3)CC2)s1 |
| 3.92 | 4.06 | 0.363 | O=C(Cc1ccccc1)Nc1nnc(N2CCN(Cc3ccc(C(=O)N4CCC(CO)CC4)cc3)CC2)s1 |
| 1.49 | 2.42 | 0.345 | CCN(CC)CCNC(=O)c1cccc(CN2CCN(c3nnc(NC(=O)Cc4ccccc4)s3)CC2)c1 |
| 0.81 | 1.26 | 0.135 | Cc1ccccc1CN1CCC(CNC(=O)c2ccc(COCCC3CCN(c4nnc(NC(=O)Cc5ccccc5)s4)CC3)cc2)CC1 |
| > 10 | > 10 | > 10 | O=C(Cc1ccccc1)Nc1nnc(CCc2ccc(C(=O)NCCN3CCCC3)cc2)s1 |
| 0.57 | 2.04 | 0.3 | O=C(Cc1ccccc1)Nc1nnc(N2CCN(Cc3ccc(C(=O)NCCc4ccc(F)cc4)cc3)CC2)s1 |
| 0.69 | 0.98 | 0.126 | O=C(Cc1ccccc1)Nc1nnc(N2CCC(CCOCc3cccc(C(=O)NCC4CCN(Cc5cc(F)cc(F)c5)CC4)c3)CC2)s1 |
| > 10 | > 10 | > 10 | COCCNC(=O)c1ccc(CN2CCN(c3nnc(NC(=O)Cc4ccccc4)s3)CC2)cc1 |
| 9.03 | 7.51 | 0.621 | CCN(CC)CCNC(=O)c1cccc(COCCC2CCN(c3nnc(NC(=O)Cc4ccccc4)s3)CC2)c1 |
| 3.81 | 1.25 | 1.25 | O=C(Cc1ccccc1)Nc1nnc(N2CCC(OCc3ccc(C(=O)NCCN4CCCC4)cc3)CC2)s1 |
| 2.89 | 3.45 | 0.42 | CCCNC(=O)c1ccc(COCCC2CCN(c3nnc(NC(=O)Cc4ccccc4)s3)CC2)cc1 |

| IC50 (HCT-116) [µM] | IC50 (A549) [µM] | IC50 [1] [µM] | Compound |
| --- | --- | --- | --- |
| 8.95 | 9.68 | 0.489 | O=C(Cc1ccccc1)Nc1nnc(N2CCC(CCOCc3cccc(C(=O)NCCN4CCCC4)c3)CC2)s1 |
| 1.08 | 1.68 | 0.212 | Cc1ccc(NC(=O)c2ccc(CN3CCN(c4nnc(NC(=O)Cc5ccccc5)s4)CC3)cc2)cc1 |
| > 10 | > 10 | > 1 | Cc1cccc(CN(C)C(=O)c2ccc(CN3CCN(c4nnc(NC(=O)Cc5ccccc5)s4)CC3)cc2)c1 |
| > 10 | > 10 |  | O=C(Cc1ccccc1)Nc1cccc(CN2CCN(c3nnc(NC(=O)Cc4ccccc4)s3)CC2)c1 |
| 0.8 | 1.89 | 0.12 | O=C(Cc1ccccc1)Nc1nnc(N2CCC(CCOCc3ccc(C(=O)NCC4CCN(Cc5cc(F)cc(F)c5)CC4)cc3)CC2)s1 |
| 0.67 | 1.28 | 0.25 | CN1CCN(c2ccc(NC(=O)c3ccc(CN4CCN(c5nnc(NC(=O)Cc6ccccc6)s5)CC4)cc3)cc2)CC1 |
| 1.53 | 1.05 | 0.089 | CN1CCN(c2ccc(C(=O)Nc3cccc(CN4CCN(c5nnc(NC(=O)Cc6ccccc6)s5)CC4)c3)cc2)CC1 |
| 1.28 | 2.26 | 0.221 | CCNCCNC(=O)c1ccc(CN2CCN(c3nnc(NC(=O)Cc4ccccc4)s3)CC2)cc1 |
| > 10 | > 10 |  | O=C(Cc1ccccc1)Nc1ccc(CN2CCN(c3nnc(NC(=O)Cc4ccccc4)s3)CC2)cc1 |
| 4.98 | 5.84 | 0.53 | CCCCNC(=O)c1ccc(COCC2CCN(c3nnc(NC(=O)Cc4ccccc4)s3)CC2)cc1 |
| > 10 | > 10 |  | O=C(Cc1ccccc1)Nc1nnc(N2CCN(Cc3cccc(C(=O)NCCc4ccc(F)cc4)c3)CC2)s1 |
| 3.92 | 2.01 | 0.26 | CCCN1CCC(CNC(=O)c2cccc(COCCC3CCN(c4nnc(NC(=O)Cc5ccccc5)s4)CC3)c2)CC1 |
| 1.56 | 3.96 | 0.432 | CN1CCC(CNC(=O)c2cccc(CN3CCN(c4nnc(NC(=O)Cc5ccccc5)s4)CC3)c2)CC1 |
| > 10 | > 10 |  | CC(C)N1CCC(CNC(=O)c2cccc(COCCC3CCN(c4nnc(NC(=O)Cc5ccccc5)s4)CC3)c2)CC1 |
| 1.09 | 2.53 | 0.146 | CC(C)CNC(=O)c1ccc(CN2CCN(c3nnc(NC(=O)Cc4ccccc4)s3)CC2)cc1 |
| 1.67 | 2.03 | 0.212 | O=C(Cc1ccccc1)Nc1nnc(N2CCN(Cc3cccc(C(=O)NCCN4CCCCC4)c3)CC2)s1 |
| 0.91 | 1.29 | 0.12 | CCCCN1CCC(CNC(=O)c2ccc(COCCC3CCN(c4nnc(NC(=O)Cc5ccccc5)s4)CC3)cc2)CC1 |
| 1.49 | 1.09 | 0.132 | O=C(Cc1ccccc1)Nc1nnc(N2CCN(Cc3ccc(C(=O)NC4CCCC4)cc3)CC2)s1 |
| 1.49 | 1.85 | 0.253 | O=C(Cc1ccccc1)Nc1nnc(N2CCN(Cc3ccc(C(=O)NCc4cccc(C(F)(F)F)c4)cc3)CC2)s1 |
| 1.2 | 4.38 | 0.44 | CCN(CC)CCNC(=O)c1ccc(COCCC2CCN(c3nnc(NC(=O)Cc4ccccc4)s3)CC2)cc1 |
| 1.66 | 3.65 | 0.163 | O=C(Cc1ccccc1)Nc1nnc(N2CCN(Cc3ccc(C(=O)NCCN4CCCC4)cc3)CC2)s1 |
| > 10 | > 10 |  | CC(C)c1ccc(CNC(=O)c2cccc(CN3CCN(c4nnc(NC(=O)Cc5ccccc5)s4)CC3)c2)cc1 |
| 1.26 | 1.05 | 0.123 | CN1CCN(c2cccc(C(=O)Nc3ccc(CN4CCN(c5nnc(NC(=O)Cc6ccccc6)s5)CC4)cc3)c2)CC1 |
| 8.12 | 9.07 | 0.802 | CN1CCC(CNC(=O)c2cccc(COCCC3CCN(c4nnc(NC(=O)Cc5ccccc5)s4)CC3)c2)CC1 |
| 4.03 | 3.52 | 0.35 | C=CCCC(=O)N1CCC(CNC(=O)c2cccc(COCCC3CCN(c4nnc(NC(=O)Cc5ccccc5)s4)CC3)c2)CC1 |
